Patent US20010027213A1, “Use of pyrethroid compounds to promote hair growth” (priority 1998, published 2001)

Tested on: C3H strain mice
Test: Hair growth on clipped back skin, repeat with minoxidil control, Example 5
Type: in vivo
Design: Level of hair growth (unaided visual inspection): scale not given here
Conditions: 0.01%; Week 1
Protocol: (§1) The ability of topical administration of pyrethroid compounds to promote hair growth was assessed in female C3H strain mice (10 weeks old; n=5/group). Hair on the back skin of the mice was clipped carefully with an electric clipper. 5 μL/cm^2 of the five compositions tested in the examples above were applied to the mice daily. The level of hair growth at the applied skin areas were evaluated by unaided visual inspection at the indicated time. Cyclosporin A was used as a control.
The experiment described in Example 4 was repeated with a commercially available hair growth-promoting compound (5% minoxidil) as a control.

SMILES | Level of hair growth (unaided visual inspection)
CC1(C)C(C=C(Cl)Cl)C1C(=O)OCc1cccc(Oc2ccccc2)c1 (stereo not drawn) [Permethrin, permethrin] | 0

Same assay, conditions: 0.01%; Week 2

SMILES | Level of hair growth (unaided visual inspection)
CC1(C)C(C=C(Cl)Cl)C1C(=O)OCc1cccc(Oc2ccccc2)c1 (stereo not drawn) [Permethrin, permethrin] | 0

Same assay, conditions: 0.01%; Week 3

SMILES | Level of hair growth (unaided visual inspection)
CC1(C)C(C=C(Cl)Cl)C1C(=O)OCc1cccc(Oc2ccccc2)c1 (stereo not drawn) [Permethrin, permethrin] | 0

Same assay, conditions: 0.01%; Week 4

SMILES | Level of hair growth (unaided visual inspection)
CC1(C)C(C=C(Cl)Cl)C1C(=O)OCc1cccc(Oc2ccccc2)c1 (stereo not drawn) [Permethrin, permethrin] | 0

Same assay, conditions: 0.01%; Week 5

SMILES | Level of hair growth (unaided visual inspection)
CC1(C)C(C=C(Cl)Cl)C1C(=O)OCc1cccc(Oc2ccccc2)c1 (stereo not drawn) [Permethrin, permethrin] | 0

Same assay, conditions: 0.01%; Week 6

SMILES | Level of hair growth (unaided visual inspection)
CC1(C)C(C=C(Cl)Cl)C1C(=O)OCc1cccc(Oc2ccccc2)c1 (stereo not drawn) [Permethrin, permethrin] | 0

Same assay, conditions: 0.1%; Week 1

SMILES | Level of hair growth (unaided visual inspection)
CC1(C)C(C=C(Cl)Cl)C1C(=O)OCc1cccc(Oc2ccccc2)c1 (stereo not drawn) [Permethrin, permethrin] | 0

Same assay, conditions: 0.1%; Week 2

SMILES | Level of hair growth (unaided visual inspection)
CC1(C)C(C=C(Cl)Cl)C1C(=O)OCc1cccc(Oc2ccccc2)c1 (stereo not drawn) [Permethrin, permethrin] | 0

Same assay, conditions: 0.1%; Week 3

SMILES | Level of hair growth (unaided visual inspection)
CC1(C)C(C=C(Cl)Cl)C1C(=O)OCc1cccc(Oc2ccccc2)c1 (stereo not drawn) [Permethrin, permethrin] | 0

Same assay, conditions: 0.1%; Week 4

SMILES | Level of hair growth (unaided visual inspection)
CC1(C)C(C=C(Cl)Cl)C1C(=O)OCc1cccc(Oc2ccccc2)c1 (stereo not drawn) [Permethrin, permethrin] | 0

Same assay, conditions: 0.1%; Week 5

SMILES | Level of hair growth (unaided visual inspection)
CC1(C)C(C=C(Cl)Cl)C1C(=O)OCc1cccc(Oc2ccccc2)c1 (stereo not drawn) [Permethrin, permethrin] | 0

Same assay, conditions: 0.1%; Week 6

SMILES | Level of hair growth (unaided visual inspection)
CC1(C)C(C=C(Cl)Cl)C1C(=O)OCc1cccc(Oc2ccccc2)c1 (stereo not drawn) [Permethrin, permethrin] | 0

Same assay, conditions: 1%; Week 1

SMILES | Level of hair growth (unaided visual inspection)
CC1(C)C(C=C(Cl)Cl)C1C(=O)OCc1cccc(Oc2ccccc2)c1 (stereo not drawn) [Permethrin, permethrin] | 0

Same assay, conditions: 1%; Week 2

SMILES | Level of hair growth (unaided visual inspection)
CC1(C)C(C=C(Cl)Cl)C1C(=O)OCc1cccc(Oc2ccccc2)c1 (stereo not drawn) [Permethrin, permethrin] | 0

Same assay, conditions: 1%; Week 3

SMILES | Level of hair growth (unaided visual inspection)
CC1(C)C(C=C(Cl)Cl)C1C(=O)OCc1cccc(Oc2ccccc2)c1 (stereo not drawn) [Permethrin, permethrin] | 0

Same assay, conditions: 1%; Week 4

SMILES | Level of hair growth (unaided visual inspection)
CC1(C)C(C=C(Cl)Cl)C1C(=O)OCc1cccc(Oc2ccccc2)c1 (stereo not drawn) [Permethrin, permethrin] | 0

Same assay, conditions: 1%; Week 5

SMILES | Level of hair growth (unaided visual inspection)
CC1(C)C(C=C(Cl)Cl)C1C(=O)OCc1cccc(Oc2ccccc2)c1 (stereo not drawn) [Permethrin, permethrin] | 0

Same assay, conditions: 1%; Week 6

SMILES | Level of hair growth (unaided visual inspection)
CC1(C)C(C=C(Cl)Cl)C1C(=O)OCc1cccc(Oc2ccccc2)c1 (stereo not drawn) [Permethrin, permethrin] | 1

Same assay, conditions: 5%; Week 1

SMILES | Level of hair growth (unaided visual inspection)
Nc1cc(N2CCCCC2)nc(N)[n+]1[O-] [Minoxidil, minoxidil] | 0

Same assay, conditions: 5%; Week 2

SMILES | Level of hair growth (unaided visual inspection)
Nc1cc(N2CCCCC2)nc(N)[n+]1[O-] [Minoxidil, minoxidil] | 0

Same assay, conditions: 5%; Week 3

SMILES | Level of hair growth (unaided visual inspection)
Nc1cc(N2CCCCC2)nc(N)[n+]1[O-] [Minoxidil, minoxidil] | 2

Same assay, conditions: 5%; Week 4

SMILES | Level of hair growth (unaided visual inspection)
Nc1cc(N2CCCCC2)nc(N)[n+]1[O-] [Minoxidil, minoxidil] | 3

Same assay, conditions: 5%; Week 5

SMILES | Level of hair growth (unaided visual inspection)
Nc1cc(N2CCCCC2)nc(N)[n+]1[O-] [Minoxidil, minoxidil] | 4

Same assay, conditions: 5%; Week 6

SMILES | Level of hair growth (unaided visual inspection)
Nc1cc(N2CCCCC2)nc(N)[n+]1[O-] [Minoxidil, minoxidil] | 4

Tested on: C3H strain mice
Test: Hair growth on clipped back skin, topical daily application, Example 4
Type: in vivo
Design: Level of hair growth (unaided visual inspection): scale not given here
Conditions: Day 7; 1%, 5 μL/cm^2 daily; n=5/group
Protocol: as §1, with “time.” for “time. Cyclosporin A was used as a control.”

SMILES | Level of hair growth (unaided visual inspection)
CC1(C)C(C=C(Cl)Cl)C1C(=O)OCc1cccc(Oc2ccccc2)c1 (stereo not drawn) [Permethrin, permethrin] | 0

Same assay, conditions: Day 14; 1%, 5 μL/cm^2 daily; n=5/group

SMILES | Level of hair growth (unaided visual inspection)
CC1(C)C(C=C(Cl)Cl)C1C(=O)OCc1cccc(Oc2ccccc2)c1 (stereo not drawn) [Permethrin, permethrin] | 0

Same assay, conditions: Day 19; 1%, 5 μL/cm^2 daily; n=5/group

SMILES | Level of hair growth (unaided visual inspection)
CC1(C)C(C=C(Cl)Cl)C1C(=O)OCc1cccc(Oc2ccccc2)c1 (stereo not drawn) [Permethrin, permethrin] | 0

Same assay, conditions: Day 29; 1%, 5 μL/cm^2 daily; n=5/group

SMILES | Level of hair growth (unaided visual inspection)
CC1(C)C(C=C(Cl)Cl)C1C(=O)OCc1cccc(Oc2ccccc2)c1 (stereo not drawn) [Permethrin, permethrin] | 0

Same assay, conditions: Day 36; 1%, 5 μL/cm^2 daily; n=5/group

SMILES | Level of hair growth (unaided visual inspection)
CC1(C)C(C=C(Cl)Cl)C1C(=O)OCc1cccc(Oc2ccccc2)c1 (stereo not drawn) [Permethrin, permethrin] | 0

Tested on: mice (C3H strain)
Test: Ear thickness (primary skin irritancy) after topical application, Example 1
Type: in vivo
Conditions: 1% in ethanol; C3H mice
Protocol: The following example was performed to determine if pyrethroid compounds cause skin irritation (as indicated by ear thickness in mice). Skin irritants may contribute to promoting hair growth.
Prior to the experiment, ear thickness of mice (C3H strain, female, 16 weeks of age, n=3/group) was measured with a thickness gage (Mitsutoyo Corp.). After measuring ear thickness of both ears, 10 μL of ethanol was applied on left ear and 10 μL of a pyrethroid solution (1% pyrethroid compound in ethanol) was applied to the right ear. Ear thickness was measured for three consecutive days after administration.

SMILES | Ear thickness compared to ethanol
CC1(C)C(C=C(Cl)Cl)C1C(=O)OCc1cccc(Oc2ccccc2)c1 (stereo not drawn) [Permethrin, permethrin] | did not increase ear thickness

Same assay, conditions: day 0 (before application); C3H female mice, n=3

SMILES | Right ear thickness [×0.01 mm]
CC1(C)C(C=C(Cl)Cl)C1C(=O)OCc1cccc(Oc2ccccc2)c1 (stereo not drawn) [Permethrin, permethrin] | 27.3

Same assay, conditions: day 1; 10 μL of 1% in ethanol on right ear; C3H mice

SMILES | Right ear thickness [×0.01 mm]
CC1(C)C(C=C(Cl)Cl)C1C(=O)OCc1cccc(Oc2ccccc2)c1 (stereo not drawn) [Permethrin, permethrin] | 27.7

Same assay, conditions: day 2; 10 μL of 1% in ethanol on right ear; C3H mice

SMILES | Right ear thickness [×0.01 mm]
CC1(C)C(C=C(Cl)Cl)C1C(=O)OCc1cccc(Oc2ccccc2)c1 (stereo not drawn) [Permethrin, permethrin] | 27.7

Same assay, conditions: day 3; 10 μL of 1% in ethanol on right ear; C3H mice

SMILES | Right ear thickness [×0.01 mm]
CC1(C)C(C=C(Cl)Cl)C1C(=O)OCc1cccc(Oc2ccccc2)c1 (stereo not drawn) [Permethrin, permethrin] | 28.3

Tested on: mice of the C3H strain
Test: Skin irritancy on clipped back skin, visual score, Example 3
Type: in vivo
Conditions: three repeated topical administration, 1% in ethanol
Protocol: This experiment was conducted to test the skin irritancy of the compositions of this invention on hair-growing areas of test subjects, i.e., female mice (10 weeks old) of the C3H strain (n=5 group). After clipping the hair of the back skin of mice with an electric clipper, 5 μL/cm^2 of each four composition tested in Examples 1 and 2 (at a concentration of 1% in an ethanol solution) were applied. The application was administered once a day, for 3 consecutive days. Skin irritation was evaluated by unaided visual inspection at the end of the third day.

SMILES | Skin irritation (redness)
CC1(C)C(C=C(Cl)Cl)C1C(=O)OCc1cccc(Oc2ccccc2)c1 (stereo not drawn) [Permethrin, permethrin] | failed to cause skin irritation

Tested on: mice (Sencar strain)
Test: Ear thickness after TPA plus pyrethroid application, Example 2
Type: in vivo
Conditions: day 0 (before application); Sencar female mice, n=3
Protocol: Another ear thickness experiment was performed. Ear thickness of mice (Sencar strain, female, 10 weeks of age, n =3/group) was measured with a thickness gage (Mitsutoyo Corp.). After measuring the thickness of both ears at the beginning of the experiment, 20 μL of 12-O-tetradecanoyl-phorbol 13-acetate (TPA) at a concentration of 10^−4 M in acetone was applied on both ears, followed by the application of 10 μL of ethanol on the left ears and 10 μL of the four compositions tested in Example 1 on the right ears (at a concentration of 1% of pyrethroid compound in ethanol solution). Again, ear thickness was monitored over three consecutive days following administration of the compositions.

SMILES | Right ear thickness [×0.01 mm]
CC1(C)C(C=C(Cl)Cl)C1C(=O)OCc1cccc(Oc2ccccc2)c1 (stereo not drawn) [Permethrin, permethrin] | 23.3

Same assay, conditions: day 1; 20 μL TPA 10^−4 M in acetone then 10 μL of 1% in ethanol; Sencar mice

SMILES | Right ear thickness [×0.01 mm]
CC1(C)C(C=C(Cl)Cl)C1C(=O)OCc1cccc(Oc2ccccc2)c1 (stereo not drawn) [Permethrin, permethrin] | 27.3

Same assay, conditions: day 2; 20 μL TPA 10^−4 M in acetone then 10 μL of 1% in ethanol; Sencar mice

SMILES | Right ear thickness [×0.01 mm]
CC1(C)C(C=C(Cl)Cl)C1C(=O)OCc1cccc(Oc2ccccc2)c1 (stereo not drawn) [Permethrin, permethrin] | 27.0

Same assay, conditions: day 3; 20 μL TPA 10^−4 M in acetone then 10 μL of 1% in ethanol; Sencar mice

SMILES | Right ear thickness [×0.01 mm]
CC1(C)C(C=C(Cl)Cl)C1C(=O)OCc1cccc(Oc2ccccc2)c1 (stereo not drawn) [Permethrin, permethrin] | 27.7
